Laboratory results published in publication PMC12264794, “Homoleptic complexes of titanium(IV) fused with O^N^O Schiff base derivatives: design, BSA–DNA interaction, molecular docking, DFT and cytotoxicity” (RSC Advances, 2025).

How the values were obtained:
[1] = system: CT-DNA; test: Agarose gel electrophoresis, CT-DNA cleavage; type: biochemical, calf; details: complex at 3, 1.5 and 0.75 mM
Method: The interaction and effectiveness of the Ti(IV) complex on CT-DNA were investigated using the agarose gel electrophoresis technique. This was accomplished by incubating the reaction mixtures separately, each of which contained 20 μL of CT-DNA and 20 μL of titanium complexes in PBS buffer solution, at 310 K for one hour. The tracking […] dye (1 μL) and all of the prepared solutions (5 μL) were then combined and applied to the wells of a 1% agarose gel containing 1 mM ethidium bromide that was prepared well in advance. Then the reaction mixture of complexes and CT-DNA was loaded in the wells separately using 0.25% […] dye. The electrophoresis mobility experiment was then carried out in an EDTA-PBS buffer for 60 minutes at a constant electrical voltage of 100 V until the dye reached 50% of the gel distribution area. In order to evaluate the degree of DNA binding capacity of the Ti(IV) complexes, the resultant bands were finally captured on a camera using the AXYGEN digital camera Gel Documentation System under UV light.[49–51]
There are two types of cleavage of nucleic acid chains: enzymatic and non-enzymatic. Either the oxidative cleavage of deoxyribose residues or the hydrolysis of phosphodiester links, known as hydrolytic cleavage, can result in non-enzymatic cleavage. Strong Lewis acidic metal complexes with transition metals are the main source of hydrolytic cleavage. The hydrolysis of the phosphate backbone of the nucleic acid is facilitated by a metal–phosphate intermediate. In order to understand the catalytic mechanisms of natural nucleases and to develop medications that target nucleic acids, it is crucial to design and synthesize metal complexes that can hydrolytically cleave the phosphodiester link. Agarose gel electrophoresis was used to test the capacity of the complex to cleave CT-DNA.

[2] = system: MCF7 cells; test: MTT cytotoxicity assay, MCF7; type: cell-based, human; details: 48 h of drug exposure
Method: (§1) The in vitro cytotoxicity of the Ti(IV) complexes under investigation was investigated using MTT, a micro-titration colorimetric method. The in vitro cytotoxicity test of the Ti(IV) complexes was evaluated against the cervical cancer cell line (HeLa), human breast cancer cell line (MCF-7) and human kidney normal cell line (HEK-293).[65,66]
In the cytotoxicity assay, tetrazolium salt 3-[4,5-dimethylthiazol-2-yl]-2,5diphenyl tetrazolium bromide (MTT) was utilized to assess cell viability. The MTT powder was diluted in Dulbecco's PBS (stock solution of MTT (5 mg mL^−1)) to attain a final concentration of 0.5 mg mL^−1 and a […] was used to filter and sterilize the stock solution, which was then kept at 2–6 °C. In metabolically active cells, MTT is reduced to produce an insoluble purple formazan product. In the exponential phase, cells were taken out of the stored cultures after the 48-hour recovery period, following seeding onto 96-well plates at a density of 1 × 10^4 cells per well in 100 μL medium at 37 °C in a 95% air and 5% CO2 environment, and the cells were incubated for 12 hours. Cell lines were treated for 48 hours with Ti(IV) complexes at varying doses (9.5–300 μM) and cis-platin as a control (apart from normal cells). After 48 hours of incubation at 37 °C, the medium was removed and 100 μL of DMSO was added to dissolve the […], and the culture plates were shaken for five minutes. A Bio-Rad xMARK™ multi-well plate reader was used to measure the absorbance of each well at 570 nm. Using eqn (2), the percentage viability, which represents the relative viability of the treated cells in comparison to the control cells, was calculated, and the IC50 values and standard deviation of the substances under investigation were calculated in triplicate.2 [drawing 2]
(§2) An MTT assay was used to examine the cytotoxic effectiveness of the produced Ti(IV) complexes. After 48 hours of incubation, the cytotoxicity of Ti-1-IS to Ti-6-IBr was evaluated against human cancer cell lines, such as breast carcinoma (MCF7) and cervical cancer (HeLa), as well as the non-cancerous human embryonic kidney (HEK) cell line, by using the widely used therapeutic drug, cis-platin, as a positive control by following the standard protocol.

[3] = molecular target: T1, BSA (Bos taurus, UniProt P02769); test: BSA site marker (ibuprofen, warfarin) fluorescence quenching; type: binding, bovine; details: 298 K; for Kb binding constant, BSA+Ibuprofen: site probe ibuprofen; for Kb binding constant, BSA + Warfarin: site probe warfarin
T1 construct: purchased Himedia Chemicals
T1 sequence (P02769 25-607): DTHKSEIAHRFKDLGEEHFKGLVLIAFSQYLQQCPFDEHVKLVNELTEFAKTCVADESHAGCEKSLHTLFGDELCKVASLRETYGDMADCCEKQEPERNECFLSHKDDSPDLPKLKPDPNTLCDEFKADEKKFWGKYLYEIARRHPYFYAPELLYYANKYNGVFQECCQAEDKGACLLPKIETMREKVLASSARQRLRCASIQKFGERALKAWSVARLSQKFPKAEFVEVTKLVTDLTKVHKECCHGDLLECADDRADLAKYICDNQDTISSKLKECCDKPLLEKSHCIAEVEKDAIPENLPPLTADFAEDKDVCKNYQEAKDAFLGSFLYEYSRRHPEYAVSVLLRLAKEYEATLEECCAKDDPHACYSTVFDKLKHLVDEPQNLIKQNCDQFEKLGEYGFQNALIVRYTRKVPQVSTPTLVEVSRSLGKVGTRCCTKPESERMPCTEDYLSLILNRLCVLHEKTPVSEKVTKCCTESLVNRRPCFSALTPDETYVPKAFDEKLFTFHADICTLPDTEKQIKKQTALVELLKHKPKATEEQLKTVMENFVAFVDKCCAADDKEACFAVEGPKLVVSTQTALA
Method: Fluorescence emission spectroscopy was used for site marker investigation, using an excitation wavelength of 280 nm. As they bind to the two most prevalent drug-binding sites, Sudlow sites I and II, two distinct site marker medications, warfarin (WAR) and ibuprofen (IBU), were utilized as particular site markers (probes) in this experiment. Separately, 10 mg of the site marker probes (WAR) and (IBU) were dissolved in PBS buffer. Subsequently, a known quantity of BSA was added to each probe stock solution to achieve a 5 mM concentration, and the mixture was maintained at 2 to 6 °C. The BSA + site marker binary solution was then titrated with different metal complex concentrations ranging from 0 to 80 μM, while maintaining constant binary solutions of BSA + IBU and BSA + WAR.[55,56]
In our experiment, fluorescence titration techniques were employed to determine the binding position of the BSA molecule. For the fluorescence titration, the excitation wavelength was […], and the emission was monitored between 300 and 500 nm where a fixed concentration of BSA (3 × 10^−6 M) and site markers (BSA + WAR) (BSA + IBU) were taken separately and titrated with the incremental addition of Ti-1-IS to Ti-6-IBr (0–100 μM). By comparing the Ksv values shown with and without site markers, the binding site of Ti(IV) complexes inside BSA was identified (ESI Table S3 ^†).
The Scatchard eqn (9) was used to examine the emission quenching data.

[4] = Stability studies by UV-vis in DMSO:H2O and aqueous GSH medium; type: physicochemical; details: DMSO : H2O (1 : 9, v/v) and aqueous GSH medium, over 72 hours
Method: Stability studies were carried out using DMSO : H2O medium (1 : 9, v/v) and aqueous GSH medium to perform stability tests on the freshly synthesized Ti(IV) complexes over 72 hours.

[5] = system: HEK-293 cells; test: MTT cytotoxicity assay, HEK-293; type: cell-based, human; details: 48 h of drug exposure
Method: as §1
In the cytotoxicity assay, tetrazolium salt 3-[4,5-dimethylthiazol-2-yl]-2,5diphenyl tetrazolium bromide (MTT) was utilized to assess cell viability. […] A Bio-Rad xMARK™ multi-well plate reader was used to measure the absorbance of each well at 570 nm. Using eqn (2), the percentage viability, which represents the relative viability of the treated cells in comparison to the control cells, was calculated, and the IC50 values and standard deviation of the substances under investigation were calculated in triplicate.2 [drawing 2]
as §2

[6] = system: HeLa cells; test: ROS generation, DCFH-DA staining; type: cell-based, human; details: IC50 doses, 48 hours
Method: HeLa cells of density 5 × 10^4 were seeded in six-well plates with high glucose DMEM and kept overnight until cell confluency was attained. […] The cells were treated with 10 mM 20,70-dichlorodihydrofluorescein diacetate (DCHF-DA) dye after washing twice with PBS buffer. Later, cells were incubated at 37 °C in complete darkness for 30 minutes. Subsequently, an inverted fluorescent microscope (Olympus Confocal Laser Scanning Microscope Fluoview Fv3000) was used to assess the ROS level of the cells. […] The amount of intracellular ROS was expressed as the average fluorescence intensity.[71,72]
ROS have been proposed as potential mediators of oxidative stress-induced apoptosis caused by titanium(IV) complexes, and the electrophoresis experiment mentioned above supports this theory.

Structure (SMILES)	DNA cleavage activity [1]	IC50 [2]	Kb binding constant, BSA+Ibuprofen [3]	Kb binding constant, BSA + Warfarin [3]	Stability [4]	IC50 [5]	ROS production compared to the control [6]
[O-]C(=NN=Cc1c([O-])ccc2ccccc12)c1ccncc1.[O-]C(=NN=Cc1c([O-])ccc2ccccc12)c1ccncc1.[Ti+4] [Ti-2-IN]	less cleavage activity	85.04 ± 0.5 µM	150 M⁻¹	690 M⁻¹	did not change much	> 250 µM	
COc1cccc(C=NN=C([O-])c2ccncc2)c1[O-].COc1cccc(C=NN=C([O-])c2ccncc2)c1[O-].[Ti+4] [Ti-3-IO]	higher DNA cleavage even at the lowest concentration	102.9 ± 0.3 µM	500 M⁻¹	580 M⁻¹	small degree of hyperchromism		increased fluorescence
[O-]C(=NN=Cc1ccccc1[O-])c1ccncc1.[O-]C(=NN=Cc1ccccc1[O-])c1ccncc1.[Ti+4] [Ti-1-IS]	less cleavage activity	109.22 ± 0.1 µM	340 M⁻¹	480 M⁻¹	did not change much		
Brc1ccc2c(c1)C=NN=C(c1ccncc1)[O][Ti]1([O]C(c3ccncc3)=NN=Cc3cc(Br)ccc3[O]1)[O]2 (stereo not shown) [Ti-6-IBr]	comparatively higher DNA binding cleavage in higher concentration	84.67 ± 0.5 µM	540 M⁻¹	390 M⁻¹	small degree of hyperchromism		
[O-]C(=NN=Cc1cc(F)ccc1[O-])c1ccncc1.[O-]C(=NN=Cc1cc(F)ccc1[O-])c1ccncc1.[Ti+4] [Ti-4-IF]	higher DNA cleavage even at the lowest concentration	109.8 ± 0.2 µM	370 M⁻¹	400 M⁻¹	small degree of hyperchromism		
[O-]C(=NN=Cc1cc(Cl)ccc1[O-])c1ccncc1.[O-]C(=NN=Cc1cc(Cl)ccc1[O-])c1ccncc1.[Ti+4] [Ti-5-ICl]	comparatively higher DNA binding cleavage in higher concentration	65.2 ± 1.2 µM	350 M⁻¹	160 M⁻¹	remained constant	> 250 µM	increased fluorescence
